Tests used:
Type in all cases: cell-based
[1] = system: platelets; test: Acoustic separation of platelets from lymphocytes in a blood sample pretreated with a platelet activator; settings: adenosine diphosphate 2-50 μM, incubated 10-20 minutes
Protocol: A blood sample comprising lymphocytes and platelets was subjected to acoustic energy, generally as described above. Prior to flowing the blood sample through a microfluidic separation channel, the blood sample was pretreated by diluting with an additive comprising a platelet activator, adenosine diphosphate. Adenosine diphosphate was added at a concentration of 2-50 μM. The samples were incubated for 10-20 minutes before starting the acoustic separation.

[2] = system: platelets; test: Platelet aggregate size produced by ADP; settings: 10 μM ADP
[3] = system: platelets; test: Acoustic separation of platelets from lymphocytes in blood buffy coat samples pretreated with a platelet activator
Protocol: Blood buffy coat samples from 3 donors (comprising lymphocytes and platelets) were subjected to acoustic energy, generally as described above. Prior to flowing the blood buffy coat samples through a microfluidic separation channel, the blood buffy coat samples were pretreated. Experimental samples were treated with 8 μM adenosine diphosphate (ADP) in buffer and control samples were treated with buffer only to a final dilution of approximately 1:3 buffy coat:buffer (about 10^9 cells/ml). The samples were incubated for 5 min before separation. The samples were flowed at 0.1 ml/min through a single polystyrene microchannel mounted on an oscillator using the methods described herein. The acoustic force displaced larger and more dense cells and platelet cell aggregates toward a center outlet (waste) while side outlets collected the lymphocyte-enriched product, generally as shown in FIG. 15. The products were compared to the input solution using both a hematology analyzer (Sysmex Corporation, Kobe, Hyogo Prefecture, Japan) to count cells and ELISA of the platelet-specific glycoprotein IIb/IIIa.

SMILES: Nc1ncnc2c1ncn2[C@@H]1O[C@H](COP(=O)(O)OP(=O)(O)O)[C@@H](O)[C@H]1O [ADP, adenosine diphosphate]
- response of platelets to the acoustic field [1]: responded more strongly to the acoustic field than individual platelets
- diameter of platelet aggregates [2]: about 10 μm
- platelet content by glycoprotein IIb/IIIa assay (ELISA) ([3]; ADP 8 μM): significantly reduced platelet content
- reduction of platelet count in the product versus control ([3]; ADP 8 μM): nearly ten-fold
- decrease of platelet count in the product compared to the starting material ([3]; ADP 8 μM in buffer, 5 min incubation, buffy coat from 3 donors, hematology analyzer, buffer control 274% increase): 69%
- hematocrit of product ([3]; ADP 8 μM, depleted from 10%): 4.5%
- platelet depletion on increasing the concentration ([3]; ADP 32 μM versus 8 μM): did not further improve platelet depletion
- platelet contamination in the collected lymphocytes compared to controls ([3]; ADP versus buffer-only controls): strongly reduced platelet contamination
- increase of lymphocyte purity ([3]; with or without ADP added, input 41% to output 84%): 104%
- lymphocyte output purity ([3]; with or without ADP added, input purity 41%): 84 % WBC
